Source: patent US7144991B2, “Streptavidin expressed gene fusions and methods of use thereof” (Aletheon Pharmaceuticals, Inc., priority 1999, dated 2006)
Values joined by “and” are separate entries in the source; they are usually repeats but may differ in a detail not shown here. Equal values may be shown once.

Assay: Biotin binding capacity
Conditions: 9-fold molar excess of [3H]biotin
Method: (§1) Biotin Binding and Dissociation. Biotin binding capacity was determined by incubation of a known quantity of fusion protein with a 9-fold molar excess of [3H]biotin (NEN Research Products, Boston, Mass.). After removal of uncomplexed biotin using streptavidin-immobilized beads (Pierce Chemical; Rockford, Ill.), the amount of [^3H]biotin associated with the fusion protein was determined.
as §1, with “Capacity.” for “and Dissociation.”, “[^3H]biotin” for “[3H]biotin”

Substance: recombinant streptavidin: recombinant streptavidin (Roche Biochemical), control in biotin binding and dissociation
- Biotin binding capacity (average biotins bound): 4 biotins and 4.0 biotins
